In general, inhibition in vivo refers to the relative decrease from the control value, in per cent. Broadly, the half-life is the time needed for the level to fall by half in the phase considered. As usually defined, the IC50 is the concentration that gives 50% inhibition. The term bioavailability denotes the share of a dose that reaches the circulation, judged against a reference dose that is usually intravenous. For orientation: Cmax means the peak of the concentration-time curve. For orientation: solubility means the dissolved amount per volume that the medium holds. The term AUC denotes concentration integrated over time.

Converted amounts (≈) assume the structure as drawn. The source made the active and inactive calls. Bounds are passed on as bounds.

The results in this text go back to ChEMBL document CHEMBL3286266, “Development of novel benzomorpholine class of diacylglycerol acyltransferase I inhibitors” (ACS Med Chem Lett, 2014).

Series [1] relates to Mus musculus. The series can be described thus: Induction of weight loss in diet-induced obese C57BL/6J mouse assessed as decrease in body weight at 10 mg/kg, po qd measured during 11 day chronic study. The class given is functional. On the set-up: scale not given: the % may be the effect or the level left.
For series [2], the system named is Mus musculus. The series can be described thus: Reduction in triglycerides level in mouse at 3 mg/kg, po after 2 hrs by postprandial triglyceride assay. The class given is functional.
Series [3] can be described thus: Clearance in dog liver hepatocytes measured per million cells. The class given is ADME, Canis lupus familiaris, Hepatocyte. The settings on record: read-out: CLH.
Series [4] can be described thus: Half life in mouse at 1 mg/kg, po. The settings on record: in vivo. It is filed as ADME, organism-based. Also on record: dose 1 mg/kg, route oral.
The nature of series [5]: Permeability in human Caco2 cells. The class given is ADME, cell-based. The settings on record: Caco-2, read-out: permeability. In general terms: Caco-2 cells form a polarised layer with tight junctions and transporters.
Series [6] is described as follows: Clearance in monkey liver hepatocytes measured per million cells. The settings on record: rhesus monkey, read-out: CLH. It is filed as ADME, Macaca mulatta, Hepatocyte.
Series [7] in a line: Clearance in mouse liver hepatocytes measured per million cells. The class given is ADME, Hepatocyte. The settings on record: read-out: CLH.
A further series concerns the target Prostacyclin receptor (Homo sapiens, UniProt P43119). Put plainly: Inhibition of prostanoid IP receptor (unknown origin).
Series [8] can be described thus: Plasma protein binding in human. Particulars: read-out: PPB. It is filed as ADME, cell-free.
A short description of series [9]: Half life in dog at 2 mg/kg, po. The class given is ADME, organism-based, Canis lupus familiaris. On the set-up: dose 2 mg/kg, route oral. The settings on record: in vivo.
A further series has as its target T1, Caspase-9 (Homo sapiens, UniProt P55211).
T1 sequence (P55211 whole entry): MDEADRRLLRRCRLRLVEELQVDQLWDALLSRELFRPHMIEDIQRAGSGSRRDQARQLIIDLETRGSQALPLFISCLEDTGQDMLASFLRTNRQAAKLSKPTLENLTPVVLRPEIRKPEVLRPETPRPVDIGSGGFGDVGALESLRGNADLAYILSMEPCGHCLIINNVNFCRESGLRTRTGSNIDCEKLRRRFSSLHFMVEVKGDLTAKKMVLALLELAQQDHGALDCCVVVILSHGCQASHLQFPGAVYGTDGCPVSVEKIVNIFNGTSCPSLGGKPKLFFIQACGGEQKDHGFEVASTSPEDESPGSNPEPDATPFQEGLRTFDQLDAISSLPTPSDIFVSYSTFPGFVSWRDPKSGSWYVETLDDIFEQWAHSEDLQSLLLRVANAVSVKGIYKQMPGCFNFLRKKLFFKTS
Put plainly: Inhibition of CASP9 (unknown origin).

The nature of series [10]: Half life in monkey at 3 mg/kg, po. The class given is ADME, organism-based, Macaca mulatta. Also on record: dose 3 mg/kg, route oral. Particulars: rhesus monkey, in vivo.
The nature of series [11]: Half life in rat at 10 mg/kg, po. It is filed as ADME, organism-based. Also on record: dose 10 mg/kg, route oral. Particulars: in vivo.
Series [12] in a line: Oral bioavailability in mouse at 1 mg/kg. It is filed as ADME, organism-based. Particulars: in vivo.
The nature of series [13]: Cmax in dog at 2 mg/kg, po. The class given is ADME, organism-based, Canis lupus familiaris. Also on record: dose 2 mg/kg, route oral. The settings on record: in vivo.
A short description of series [14]: Inhibition of histamine receptor (unknown origin). On the set-up: species or system Homo sapiens.
In another series the target is Cannabinoid receptor 1 (Homo sapiens, UniProt P21554). The series can be described thus: Inhibition of CB1 receptor (unknown origin).
Chain of Cannabinoid receptor 1 (P21554 whole entry): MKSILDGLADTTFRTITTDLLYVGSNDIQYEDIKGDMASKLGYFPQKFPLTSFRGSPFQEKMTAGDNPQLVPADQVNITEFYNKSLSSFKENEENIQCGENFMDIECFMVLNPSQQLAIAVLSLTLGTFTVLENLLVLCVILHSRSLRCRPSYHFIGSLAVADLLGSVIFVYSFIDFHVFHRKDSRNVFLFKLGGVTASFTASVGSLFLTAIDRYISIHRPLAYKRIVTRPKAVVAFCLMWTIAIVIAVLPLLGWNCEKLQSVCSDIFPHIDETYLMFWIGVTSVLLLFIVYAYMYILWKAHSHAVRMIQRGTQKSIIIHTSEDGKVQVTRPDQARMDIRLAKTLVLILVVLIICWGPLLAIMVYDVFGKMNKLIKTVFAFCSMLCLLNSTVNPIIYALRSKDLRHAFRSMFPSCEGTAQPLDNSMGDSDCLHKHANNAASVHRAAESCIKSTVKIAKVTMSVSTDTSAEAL
A short description of series [15]: Solubility in plasma (unknown origin) at pH 7. It is filed as ADME, cell-free.
Series [16] is described as follows: Oral bioavailability in rat at 10 mg/kg. It is filed as ADME, organism-based. Particulars: in vivo.
A short description of series [17]: Cmax in mouse at 1 mg/kg, po. Particulars: in vivo. The class given is ADME, organism-based. On the set-up: dose 1 mg/kg, route oral.
Series [18] is described as follows: AUC in mouse at 1 mg/kg, po. Particulars: plasma. The class given is ADME, organism-based. Also on record: dose 1 mg/kg, route oral.
Series [19] addresses Epidermal growth factor receptor (Homo sapiens, UniProt P00533). Put plainly: Inhibition of EGF receptor (unknown origin).
In series [20] the target is T2, Diacylglycerol O-acyltransferase 1 (Mus musculus, UniProt Q9Z2A7).
T2 sequence (Q9Z2A7 whole entry): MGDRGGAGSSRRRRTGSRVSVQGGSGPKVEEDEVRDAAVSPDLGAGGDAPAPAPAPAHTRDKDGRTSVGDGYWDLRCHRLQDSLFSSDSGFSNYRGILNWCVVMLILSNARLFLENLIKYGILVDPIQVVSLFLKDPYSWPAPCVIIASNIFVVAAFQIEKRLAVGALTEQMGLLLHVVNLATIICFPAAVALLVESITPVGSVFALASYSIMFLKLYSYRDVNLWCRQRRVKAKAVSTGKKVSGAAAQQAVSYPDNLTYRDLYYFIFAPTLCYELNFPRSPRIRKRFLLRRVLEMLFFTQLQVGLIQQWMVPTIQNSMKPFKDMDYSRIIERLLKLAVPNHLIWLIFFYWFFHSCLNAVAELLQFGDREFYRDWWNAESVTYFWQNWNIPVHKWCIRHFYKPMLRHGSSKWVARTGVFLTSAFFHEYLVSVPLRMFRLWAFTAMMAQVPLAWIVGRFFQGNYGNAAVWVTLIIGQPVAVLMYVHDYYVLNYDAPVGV
The series can be described thus: Inhibition of mouse DGAT1 expressed in Sf9 insect cells using 1,2-dioleoyl-sn-glycerol and [14C]-palmitoyl-CoA substrate by scintillation counting analysis.

A short description of series [21]: Plasma protein binding in mouse. It is filed as ADME. Particulars: read-out: PPB.
Series [22] is described as follows: Inhibition of purinergic receptor (unknown origin). On the set-up: species or system Homo sapiens.
The target of the next series is D(2) dopamine receptor (Homo sapiens, UniProt P14416). Put plainly: Inhibition of D2 receptor (unknown origin).
Chain of D(2) dopamine receptor (P14416 whole entry): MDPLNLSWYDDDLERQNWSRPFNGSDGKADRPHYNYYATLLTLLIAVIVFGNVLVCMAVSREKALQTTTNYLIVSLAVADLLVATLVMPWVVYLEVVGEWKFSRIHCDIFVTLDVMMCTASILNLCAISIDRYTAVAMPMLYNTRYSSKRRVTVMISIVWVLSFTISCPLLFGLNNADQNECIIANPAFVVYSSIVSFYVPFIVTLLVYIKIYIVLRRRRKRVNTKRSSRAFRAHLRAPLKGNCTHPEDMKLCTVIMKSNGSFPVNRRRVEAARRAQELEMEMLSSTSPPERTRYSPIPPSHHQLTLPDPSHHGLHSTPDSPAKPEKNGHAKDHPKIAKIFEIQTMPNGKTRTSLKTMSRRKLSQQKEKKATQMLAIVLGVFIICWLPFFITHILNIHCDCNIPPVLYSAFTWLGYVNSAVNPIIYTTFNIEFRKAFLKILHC
The nature of series [23]: Inhibition of neuropeptide Y receptor (unknown origin). On the set-up: species or system Homo sapiens.
Series [24] concerns Mus musculus. Put plainly: Induction of weight loss in diet-induced obese C57BL/6J mouse assessed as decrease in body weight at 30 mg/kg, po qd measured during 11 day chronic study. It is filed as functional. The settings on record: 264 h.
Series [25] deals with Mus musculus. Put plainly: Reduction in triglycerides level in mouse at 3 mg/kg, po after 12 hrs by postprandial triglyceride assay. The class given is functional.
Series [26] is described as follows: AUC in monkey at 3 mg/kg, po. The class given is ADME, organism-based, Macaca mulatta. On the set-up: dose 3 mg/kg, route oral. The settings on record: rhesus monkey, plasma.
Series [27] can be described thus: Cmax in monkey at 3 mg/kg, po. It is filed as ADME, organism-based, Macaca mulatta. On the set-up: dose 3 mg/kg, route oral. Particulars: rhesus monkey, in vivo.
In a further series the target is Insulin receptor (Homo sapiens, UniProt P06213). The series can be described thus: Inhibition of insulin receptor (unknown origin).
Chain of Insulin receptor (P06213 28-758 limits assumed): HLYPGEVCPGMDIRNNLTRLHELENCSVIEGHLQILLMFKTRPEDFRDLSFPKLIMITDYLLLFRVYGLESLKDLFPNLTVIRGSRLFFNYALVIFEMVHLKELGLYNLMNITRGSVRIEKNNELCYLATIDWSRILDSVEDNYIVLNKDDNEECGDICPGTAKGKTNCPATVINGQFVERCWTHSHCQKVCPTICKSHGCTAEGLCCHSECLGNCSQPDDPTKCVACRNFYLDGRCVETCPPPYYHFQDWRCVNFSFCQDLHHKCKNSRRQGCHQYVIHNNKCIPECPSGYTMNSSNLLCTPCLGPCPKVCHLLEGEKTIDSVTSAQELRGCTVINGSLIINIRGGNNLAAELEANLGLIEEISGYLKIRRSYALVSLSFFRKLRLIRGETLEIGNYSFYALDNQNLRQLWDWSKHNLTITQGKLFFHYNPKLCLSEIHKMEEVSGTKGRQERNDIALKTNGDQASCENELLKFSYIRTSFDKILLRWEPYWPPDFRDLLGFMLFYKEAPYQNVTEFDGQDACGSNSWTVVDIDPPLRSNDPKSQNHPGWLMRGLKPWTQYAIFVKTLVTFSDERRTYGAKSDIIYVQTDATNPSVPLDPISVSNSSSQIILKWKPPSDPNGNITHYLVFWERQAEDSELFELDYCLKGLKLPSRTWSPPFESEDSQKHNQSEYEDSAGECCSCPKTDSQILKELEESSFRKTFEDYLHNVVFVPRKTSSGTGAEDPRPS
Chain of Insulin receptor (P06213 763-1382 limits assumed): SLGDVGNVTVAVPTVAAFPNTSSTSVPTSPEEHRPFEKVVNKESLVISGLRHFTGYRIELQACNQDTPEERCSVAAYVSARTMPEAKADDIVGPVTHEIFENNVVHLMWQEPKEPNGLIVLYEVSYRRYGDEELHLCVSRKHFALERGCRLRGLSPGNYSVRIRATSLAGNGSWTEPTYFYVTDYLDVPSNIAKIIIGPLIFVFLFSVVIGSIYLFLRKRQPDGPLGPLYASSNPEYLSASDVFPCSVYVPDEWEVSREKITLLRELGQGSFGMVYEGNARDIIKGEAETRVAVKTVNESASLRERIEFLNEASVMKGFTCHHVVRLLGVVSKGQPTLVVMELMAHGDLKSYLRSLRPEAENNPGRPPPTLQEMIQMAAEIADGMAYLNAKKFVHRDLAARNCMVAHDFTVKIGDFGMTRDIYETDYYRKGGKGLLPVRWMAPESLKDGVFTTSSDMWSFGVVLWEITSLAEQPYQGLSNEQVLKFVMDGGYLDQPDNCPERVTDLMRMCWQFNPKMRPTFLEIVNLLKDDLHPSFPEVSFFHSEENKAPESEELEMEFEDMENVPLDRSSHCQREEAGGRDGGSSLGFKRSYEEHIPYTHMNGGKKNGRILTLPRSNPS
A short description of series [28]: Inhibition of CCK receptor (unknown origin). On the set-up: species or system Homo sapiens.
Series [29] can be described thus: Cmax in rat at 10 mg/kg, po. The class given is ADME, organism-based. On the set-up: dose 10 mg/kg, route oral. Particulars: in vivo.
Series [30] addresses T3, Diacylglycerol O-acyltransferase 1 (Homo sapiens, UniProt O75907).
T3 sequence (O75907 whole entry): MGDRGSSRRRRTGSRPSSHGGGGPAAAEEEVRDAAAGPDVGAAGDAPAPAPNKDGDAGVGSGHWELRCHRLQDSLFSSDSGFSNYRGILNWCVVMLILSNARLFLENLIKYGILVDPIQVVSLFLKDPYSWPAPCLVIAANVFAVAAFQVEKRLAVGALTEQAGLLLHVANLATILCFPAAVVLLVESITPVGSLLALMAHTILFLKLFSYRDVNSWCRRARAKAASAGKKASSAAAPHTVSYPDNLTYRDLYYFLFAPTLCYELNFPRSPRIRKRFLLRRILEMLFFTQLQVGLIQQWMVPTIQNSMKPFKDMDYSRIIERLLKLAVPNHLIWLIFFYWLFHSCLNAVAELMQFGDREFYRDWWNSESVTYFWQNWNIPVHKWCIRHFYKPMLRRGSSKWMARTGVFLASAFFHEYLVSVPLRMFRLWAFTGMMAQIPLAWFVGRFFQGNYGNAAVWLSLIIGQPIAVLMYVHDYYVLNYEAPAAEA
Put plainly: Inhibition of human DGAT1 expressed in Sf9 insect cells using 1,2-dioleoyl-sn-glycerol and [14C]-palmitoyl-CoA substrate by scintillation counting analysis.

A short description of series [31]: AUC in rat at 10 mg/kg, po. It is filed as ADME, organism-based. On the set-up: dose 10 mg/kg, route oral. The settings on record: plasma.
A further series has as its target Caspase-8 (Homo sapiens, UniProt Q14790). The series can be described thus: Inhibition of CASP8 (unknown origin).
Series [32] relates to Mus musculus. The series can be described thus: Induction of weight loss in diet-induced obese C57BL/6J mouse assessed as reduction in food intake at 30 mg/kg, po qd measured during 1 to 4 days. The class given is functional, organism-based. Also on record: dose 30 mg/kg.
The nature of series [33]: Inhibition of serotonin receptor (unknown origin). On the set-up: species or system Homo sapiens.
The nature of series [34]: AUC in dog at 2 mg/kg, po. Also on record: dose 2 mg/kg, route oral. The settings on record: plasma. It is filed as ADME, organism-based, Canis lupus familiaris.
The next series deals with Hepatocyte. The series can be described thus: Clearance in human liver hepatocytes measured per million cells. It is filed as ADME, cell-based.
Series [35] in a line: Clearance in rat liver hepatocytes measured per million cells. The class given is ADME, cell-based, Hepatocyte. Particulars: read-out: CLH.

Chain of Prostacyclin receptor (P43119 whole entry): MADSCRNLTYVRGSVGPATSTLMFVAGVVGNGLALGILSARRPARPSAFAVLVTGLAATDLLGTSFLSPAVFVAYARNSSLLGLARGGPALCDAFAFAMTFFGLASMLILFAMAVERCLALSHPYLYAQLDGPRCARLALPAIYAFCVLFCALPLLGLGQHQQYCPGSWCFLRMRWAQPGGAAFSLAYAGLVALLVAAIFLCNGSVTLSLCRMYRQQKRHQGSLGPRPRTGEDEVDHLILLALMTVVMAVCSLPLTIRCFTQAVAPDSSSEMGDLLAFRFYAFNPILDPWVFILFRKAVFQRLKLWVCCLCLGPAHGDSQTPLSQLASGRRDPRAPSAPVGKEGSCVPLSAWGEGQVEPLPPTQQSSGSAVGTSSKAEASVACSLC
Chain of Epidermal growth factor receptor (P00533 whole entry): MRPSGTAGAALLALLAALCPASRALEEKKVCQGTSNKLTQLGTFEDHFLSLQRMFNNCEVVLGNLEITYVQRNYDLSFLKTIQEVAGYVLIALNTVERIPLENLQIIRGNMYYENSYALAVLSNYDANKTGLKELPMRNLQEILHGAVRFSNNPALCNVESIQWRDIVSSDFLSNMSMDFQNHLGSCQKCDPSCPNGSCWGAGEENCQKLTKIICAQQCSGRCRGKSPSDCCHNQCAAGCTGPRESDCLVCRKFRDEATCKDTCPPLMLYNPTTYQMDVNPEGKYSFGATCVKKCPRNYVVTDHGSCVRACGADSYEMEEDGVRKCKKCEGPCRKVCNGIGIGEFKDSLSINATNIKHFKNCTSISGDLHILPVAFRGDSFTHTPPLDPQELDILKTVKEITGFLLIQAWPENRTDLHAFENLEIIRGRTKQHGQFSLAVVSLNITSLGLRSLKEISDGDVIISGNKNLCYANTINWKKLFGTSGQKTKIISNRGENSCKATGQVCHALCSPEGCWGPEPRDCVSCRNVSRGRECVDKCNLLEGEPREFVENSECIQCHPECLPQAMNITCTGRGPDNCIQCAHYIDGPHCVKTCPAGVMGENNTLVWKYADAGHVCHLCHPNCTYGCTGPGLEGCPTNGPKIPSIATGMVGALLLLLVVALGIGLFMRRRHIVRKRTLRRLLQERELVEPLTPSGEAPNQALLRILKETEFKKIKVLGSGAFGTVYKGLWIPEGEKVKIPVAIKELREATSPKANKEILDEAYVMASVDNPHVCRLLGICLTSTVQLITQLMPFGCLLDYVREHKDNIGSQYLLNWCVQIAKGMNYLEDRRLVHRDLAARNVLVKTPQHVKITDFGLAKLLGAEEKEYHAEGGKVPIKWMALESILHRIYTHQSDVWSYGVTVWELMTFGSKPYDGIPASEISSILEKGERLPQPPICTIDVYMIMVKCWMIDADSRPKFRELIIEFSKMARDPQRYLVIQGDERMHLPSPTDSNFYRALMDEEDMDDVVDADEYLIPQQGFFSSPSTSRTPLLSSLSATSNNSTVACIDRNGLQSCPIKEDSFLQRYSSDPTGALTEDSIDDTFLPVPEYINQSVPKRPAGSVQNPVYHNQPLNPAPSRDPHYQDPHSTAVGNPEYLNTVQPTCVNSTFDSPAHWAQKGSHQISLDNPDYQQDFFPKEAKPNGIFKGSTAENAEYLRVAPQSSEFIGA
Chain of Caspase-8 (Q14790 217-374 limits assumed): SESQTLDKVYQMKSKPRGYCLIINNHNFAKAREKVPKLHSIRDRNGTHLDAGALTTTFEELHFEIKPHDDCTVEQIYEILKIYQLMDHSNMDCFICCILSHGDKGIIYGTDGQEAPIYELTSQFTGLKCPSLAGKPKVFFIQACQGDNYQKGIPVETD
Chain of Caspase-8 (Q14790 385-479 limits assumed): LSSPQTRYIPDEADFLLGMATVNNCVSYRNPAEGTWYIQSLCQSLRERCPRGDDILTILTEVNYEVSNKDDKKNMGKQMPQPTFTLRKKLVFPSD

On to `O=C(Nc1ccc(OC(F)(F)F)cc1)Nc1ccc(-c2ccc(C(=O)[C@@H]3CCC[C@H]3C(=O)O)cc2)cc1F`, for which the Activity in the series with Mus musculus [1] is recorded as 2%.

With `CCc1ccccc1NC(=O)N1C[C@@H](C)Oc2cc(-c3ccc([C@H]4CC[C@H](CC(=O)O)CC4)cc3)ccc21`, the inhibition in vivo at 3 mg/kg with Mus musculus [2] was determined as 93%; in the series on Mus musculus [25] it was 87%. The hepatocyte CLint was found to be 16 µL/min/1e6 cells in series [3], 14 µL/min/1e6 cells in series [6], 6.2 µL/min/1e6 cells in series [7] and 10 µL/min/1e6 cells in series [35]. Moreover, the half-life in series [4] was 6.2 h; in series [9], 3 h; in series [10] it was 3 h; in [11], 3 h. Also, the Papp in series [5] was 20.1 ×10⁻⁶ cm/s. The half-maximal inhibitory concentration (IC50) against Prostacyclin receptor is 1 µM; on Caspase-9 it was 5 µM; in series [14], more than 10 µM; on Cannabinoid receptor 1 it was more than 10 µM; in [19] it was 7.5 µM; in series [20], 0.044 µM. Moreover, the IC50 was more than 10 µM in series [22]; more than 10 µM against D(2) dopamine receptor; more than 10 µM in series [23]; 5.7 µM against Insulin receptor; more than 10 µM in series [28]; 0.064 µM in [30]. The values for the half-inhibitory concentration (IC50) (against Caspase-8; in series [33]) were 6.8 µM and more than 10 µM, respectively. Further, the fraction unbound in series [8] and in [21] was less than 0.005 in each case. Besides, the bioavailability in series [12] turned out to be 89%; in series [16], 75%. Also, the highest concentration (Cmax) in [13] came out at 3.3 µM; in [17] it was 0.6 µM; in series [27] it was 5.7 µM; in [29], 9.1 µM. The solubility in series [15] worked out at 50 µM (≈ 25.6 µg/mL). The AUC in series [18] worked out at 3.7 µM·h; in series [26] it was 64 µM·h; in series [31], 41 µM·h; in series [34], 23 µM·h. For the same compound, in the series with Mus musculus [24], the inhibition in vivo at 30 mg/kg is more than 5%. In addition, in the series with Mus musculus [32], the result was Active. In the series with Hepatocyte, the CLH was found to be 14 µL/min/1e6 cells.
